Entries after “also recorded” stand apart in the source; their conditions may differ.
Assays:
[1] = system: Panc-1; assay: MTT cell viability assay; type: cell-based
Method: 1.1. ZPP and Y29794 induces cytotoxicity to cancer cells by MTT analysis of cell viability. Cells were placed in 96-well plates (3×10^3 cells/well) in octuplicate. The cells were then treated with vehicle or different doses of ZPP for 4 days. Cells were then loaded with 1.2 mM MTT (4,5-Dimethylthiazol-2-vn-2,5-diphenvltetrazolium bromide, a yellow tetrazole) in phenol red-free medium for 4 hours. The cells were then lysed in 10% SDS/0.01M HCL. MTT absorbance (570 nm spectrum) was measured by a microplate reader. The relative absorbance is normalized to the control (vehicle-treated) to indicate relative cell viability. ZPP was purchased from Biomol (Plymouth Meeting, Pa., USA). MTT was purchased from Sigma-Aldrich. Panc-1 and Capan-1 pancreatic cancer cell line, MCF7 and T47D breast cancer cell lines, A549 and HI 703 lung cancer Cell lines were purchased from American Type Culture Collection (ATCC, USA) preparation of pancreatic cancer cell line PK-9 have been disclosed, e.g., Kobari M et al, (1986) Tohoku J Exp Med. 150: 231-248; Etoh T et al, (2003) Clin Cancer Res 9; 1218; Arafat H. et al, (2011) Surgery 150 (2): 306-315. Cells were grown in Dulbecco's Modified. Eagle's (DMEM) medium (Invitrogen, Carlsbad, Calif.) containing 10% fetal bovine serum (FBS) (Hyclone, purchased from Thermo Fisher Scientific, Inc). […] […] Y29794 oxalate was purchased from Tocris Biosciences (Bristol, UK).

[2] = system: A549; assay: MTT cell viability assay; type: cell-based; conditions: A549, different doses, 4 days
Method: (§1) 1.1. ZPP and Y29794 induces cytotoxicity to cancer cells by MTT analysis of cell viability. Cells were placed in 96-well plates (3×10^3 cells/well) in octuplicate. The cells were then treated with vehicle or different doses of ZPP for 4 days. Cells were then loaded with 1.2 mM MTT (4,5-Dimethylthiazol-2-vn-2,5-diphenvltetrazolium bromide, a yellow tetrazole) in phenol red-free medium for 4 hours. The cells were then lysed in 10% SDS/0.01M HCL. MTT absorbance (570 nm spectrum) was measured by a microplate reader. The relative absorbance is normalized to the control (vehicle-treated) to indicate relative cell viability. ZPP was purchased from Biomol (Plymouth Meeting, Pa., USA). MTT was purchased from Sigma-Aldrich. Panc-1 and Capan-1 pancreatic cancer cell line, MCF7 and T47D breast cancer cell lines, A549 and HI 703 lung cancer Cell lines were purchased from American Type Culture Collection (ATCC, USA) preparation of pancreatic cancer cell line PK-9 have been disclosed, e.g., Kobari M et al, (1986) Tohoku J Exp Med. 150: 231-248; Etoh T et al, (2003) Clin Cancer Res 9; 1218; Arafat H. et al, (2011) Surgery 150 (2): 306-315. Cells were grown in Dulbecco's Modified. Eagle's (DMEM) medium (Invitrogen, Carlsbad, Calif.) containing 10% fetal bovine serum (FBS) (Hyclone, purchased from Thermo Fisher Scientific, Inc). […] In similar experiments, the cells were treated with different doses of Y29794 for 4 days and analyzed for MTT absorbance. Y29794 oxalate was purchased from Tocris Biosciences (Bristol, UK).

[3] = system: AsPC-1; assay: MTT cell viability assay; type: cell-based; conditions: AsPC-1, different doses, 4 days
Method: as §1

[4] = system: Capan-1; assay: MTT cell viability assay; type: cell-based; conditions: Capan-1, different doses, 4 days
Method: as §1

[5] = system: H1703; assay: MTT cell viability assay; type: cell-based; conditions: H1703, different doses, 4 days
Method: as §1

[6] = system: MCF7; assay: MTT cell viability assay; type: cell-based; conditions: MCF7, different doses, 4 days
Method: as §1

[7] = system: MDAMB231; assay: MTT cell viability assay; type: cell-based; conditions: MDAMB231, different doses, 4 days
Method: as §1

[8] = system: PK-9; assay: MTT cell viability assay; type: cell-based; conditions: PK-9, different doses, 4 days
Method: as §1

[9] = system: TD47; assay: MTT cell viability assay; type: cell-based; conditions: TD47, different doses, 4 days
Method: as §1

[10] = system: Panc-1; assay: Colony formation assay (clonogenic assay); type: cell-based
Method: 1.2. Colony formation assay (clonogenic assay) was used to analyze the effect of ZPP or Y29794 on cancer cell survival. 10^3 Panc-1 cells were plated in 100 mm petri dish in triplicate fed with 10 ml of DMEM containing 10% FBS. The cells were then treated by ZPP for 7 days and cultured for additional three weeks. Cells were then rinsed three times with PBS, fixed with 100% ethanol for 15 min, and stained with 2% crystal violet ethanol solution. The stained colonies were counted. All the results are statistically analyzed by one way ANOVA and two tailed t-test.

[11] = system: Panc-1 tumor; assay: Xenotransplanted Panc-1 pancreatic tumor growth in SCID mice; type: in vivo, SCID mice (BALB/C)
Method: 4-6 week-old male SCID mice (BALB/C) were purchased from Charles River laboratories (Wilmington, Mass., USA). Pane-1 cells at about 80% confluence were trypsinized with 0.25% trypsin and 0.02% EDTA. The cell suspension was centrifuged after addition of 10% FBS. 10^6 cells were resuspended in 100 μl PBS buffer containing 10% Matrigel, and injected with a 1-cc syringe with a 27-30 sized needle into the right flank of nude mice under anesthesia. After tumor formation (mean volume 50-60 mm^3) the mice were randomly divided into four groups (6 mice per group): control group, rapamycin treatment group, Y29794 treatment group, and Y29794 plus rapamycin treatment group. Rapamycin and Y29794 were dissolved in Cremophor formulation (20% Cremophor EL, 30% propylene glycol, 50% ethanol). Rapamycin (2 mg/kg body weight) was given by intraperitoneal injection one dose per week. Y29794 (20 mg/kg body weight) was administered by gavage five doses a week. Weekly measurements of tumor size (length, width and depth) and calculation of the tumor volume (½ larger diameter×(smaller diameter)) were carried until the control tumors reached 1000 mm^3.

CC(C)c1ccc(C(=O)c2cccs2)c(SCCCCCCCCN(C)C)n1 [Y29794, [2-[8-(dimethylamino)octylsulfanyl]-6-propan-2-ylpyridin-3-yl]-thiophen-2-ylmethanone]
MTT absorbance (relative cell viability) ([1]; Panc-1, different doses, 4 days): dose-dependent cytotoxicity | cell viability (MTT), combination ([1]; Panc-1, various concentration of Y29794 with 0.5 nM rapamycin, three days (FIG. 16A legend)): synergistic reduction | cell viability (MTT), combination ([1]; Panc-1, various concentration of rapamycin with 25 nM Y29794, three days (FIG. 16B legend)): synergistic reduction | MTT absorbance (relative cell viability) [2]: dose-dependent cytotoxicity | MTT absorbance (relative cell viability) [3]: dose-dependent cytotoxicity | MTT absorbance (relative cell viability) [4]: dose-dependent cytotoxicity | MTT absorbance (relative cell viability) [5]: dose-dependent cytotoxicity | MTT absorbance (relative cell viability) [6]: dose-dependent cytotoxicity | MTT absorbance (relative cell viability) [7]: dose-dependent cytotoxicity | MTT absorbance (relative cell viability) [8]: dose-dependent cytotoxicity | MTT absorbance (relative cell viability) [9]: dose-dependent cytotoxicity | cell survival (colony formation) ([10]; Panc-1, Y29794 25 nM in combination with rapamycin): significantly (P<0.01) decreased | cell colonies formed at 21 days, combination ([10]; Panc-1, various concentration of rapamycin with 25 nM Y29794, 7 days (FIG. 16C legend)): synergistic reduction | tumor growth (tumor volume), combination ([11]; Y29794 20 mg/kg by gavage five doses a week plus rapamycin 2 mg/kg intraperitoneal one dose per week): synergistic effect; also recorded: inhibited tumor growth (P<0.01) more than Y29794 alone | tumor growth (tumor volume) ([11]; Y29794 alone, 20 mg/kg by gavage five doses a week, vs control group, 20 mg/kg): significantly reduces; also recorded: significantly inhibited
